Experimental findings from US20230257351A1, “SUBSTITUTED N-[…] HAVING P2X4 RECEPTOR ANTAGONISTIC ACTIVITY” (Bayer Aktiengesellschaft, priority 2020, published 2023) are described below.

The IC50 is the concentration that gives 50% inhibition.

The experiment has as its target T1, human P2X4 (Homo sapiens, UniProt Q99571).
T1 construct: expressed in transfected cells
T1 sequence (Q99571 1-388): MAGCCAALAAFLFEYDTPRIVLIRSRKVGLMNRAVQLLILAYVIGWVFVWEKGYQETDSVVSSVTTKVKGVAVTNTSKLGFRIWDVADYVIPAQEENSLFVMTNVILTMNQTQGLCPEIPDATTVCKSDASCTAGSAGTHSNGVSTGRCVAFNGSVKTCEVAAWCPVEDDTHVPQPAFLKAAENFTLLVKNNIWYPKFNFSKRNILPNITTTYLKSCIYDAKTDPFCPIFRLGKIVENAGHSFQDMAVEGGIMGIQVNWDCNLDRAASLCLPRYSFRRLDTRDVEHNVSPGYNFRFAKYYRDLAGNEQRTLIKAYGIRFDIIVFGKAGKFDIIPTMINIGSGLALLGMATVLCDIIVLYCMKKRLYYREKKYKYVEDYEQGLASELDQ
Briefly: Human P2X4 HEK Cell FLIPR Assay. In kind it is cell-based. Conditions: HEK293 stably expressing human P2X4, agonist Bz-ATP 3 μM (EC80); for IC50: read-out: Human P2X4 HEK Cells (FLIPR Assay) avg IC50. Here is the method: Compounds were tested on a HEK293 cell line stably expressing human P2X4. Cells were cultured on poly-D-lysine-coated 384-well plates at a density of 15,000 cells/well and incubated overnight at 37° C., 5% CO2. P2X4 function was assessed by measuring intracellular calcium fluxes caused by Benzoylbenzoyl-ATP (Bz-ATP) using the calcium-chelating dye Fluo8-AM (Molecular Devices) with the Fluorescent Imaging Plate Reader Tetra (FLIPR^Tetra; Molecular Devices CA). On the day of the assay, the medium was removed and the cells were incubated for 30 min at 37° C. and 5% CO2 in 30 μl of dye buffer (Hank's balanced salt solution, 10 mM HEPES, 1.8 mM CaCl2, 1 mM MgCl2, 2 mM probenecid, 5 mM D-glucose monohydrate, 5 μM Fluo8-AM, pH=7.4). Compounds diluted in probenecid buffer (Hank's balanced salt solution, 10 mM HEPES, 1.8 mM CaCl2, 1 mM MgCl2, 2 mM probenecid, 5 mM D-glucose monohydrate, pH=7.4) at ten concentrations ranging from 25 μM to 1 nM (final concentration) were dispensed and incubated for 30 min at room temperature. […] The final assay volume was 50 μl and final DMSO concentration was 0.5%.
The fluorescence intensity reflecting intracellular calcium changes was recorded before and after Bz-ATP addition, at an excitation and emission wavelengths of 470-495 nm and 515-575 nm respectively.
The compounds were tested in triplicates and fluorescence intensity raw data normalized to the agonist control and fitted to the four-parameter logistic equation:
Y=Bottom+(Top−Bottom)/(1+10^((Log IC50−X)*HillSlope))
Assay plate acceptance was based on the signal window (S/B)[…] and the reference compound pIC50 within ±3σ the mean of historic pIC50 of the compound. Failure to meet two of the three criteria determined exclusion of the plate's results.

`COc1ccc(N(C(C)=O)c2cc(NC(=O)Cc3ccc(F)cc3Cl)ccn2)cc1F` [Example 78, N-{4-[2-(2-chloro-4-fluorophenyl)acetamido]pyridin-2-yl}-N-(3-fluoro-4-methoxyphenyl)acetamide]: the “Human P2X4 HEK Cells (FLIPR Assay) avg Efficacy” value (from here on “Human P2X4 HEK Cells”) is 94% and the IC50 was found to be 573 nM.

Turning to `CC(=O)N(c1ccc(S(C)(=O)=O)c(F)c1)c1cc(NC(=O)Cc2cccc(F)c2Cl)ccn1` [Example 81, N-{4-[2-(2-chloro-3-fluorophenyl)acetamido]pyridin-2-yl}-N-[3-fluoro-4-(methanesulfonyl)phenyl]acetamide], the “Human P2X4 HEK Cells” value came to 97% and the IC50 turned out to be 895 nM.

Take `CC(=O)N(c1ccc(S(C)(=O)=O)c(F)c1)c1cc(NC(=O)Cc2c(Cl)cccc2Cl)ccn1` [Example 82, N-{4-[2-(2,6-dichlorophenyl)acetamido]pyridin-2-yl}-N-[3-fluoro-4-(methanesulfonyl)phenyl]acetamide]: the “Human P2X4 HEK Cells” value was 97% and the IC50 was found to be 504 nM.

As to `CC(=O)N(c1cc(F)c(C)c(F)c1)c1cc(NC(=O)Cc2ccccc2Cl)ccn1` [Example 92, N-{4-[2-(2-chlorophenyl)acetamido]pyridin-2-yl}-N-(3,5-difluoro-4-methylphenyl)acetamide], the “Human P2X4 HEK Cells” value came out at 97% and the IC50 was 568 nM.

For `CC(=O)N(c1cc(F)c(C)c(F)c1)c1cc(NC(=O)Cc2ccc(F)cc2Cl)ccn1` [Example 93, N-{4-[2-(2-chloro-4-fluorophenyl)acetamido]pyridin-2-yl}-N-(3,5-difluoro-4-methylphenyl)acetamide], the “Human P2X4 HEK Cells” value is given as 98% and the IC50 worked out at 705 nM.

`CC(=O)N(c1cc(F)c(C)c(F)c1)c1cc(NC(=O)Cc2cccc(F)c2Cl)ccn1` [Example 94, N-{4-[2-(2-chloro-3-fluorophenyl)acetamido]pyridin-2-yl}-N-(3,5-difluoro-4-methylphenyl)acetamide]: the “Human P2X4 HEK Cells” value is 97% and the half-maximal inhibitory concentration (IC50) is 710 nM.

On to `CC(=O)N(c1cc(F)c(C)c(F)c1)c1cc(NC(=O)Cc2c(Cl)cccc2Cl)ccn1` [Example 95, N-{4-[2-(2,6-dichlorophenyl)acetamido]pyridin-2-yl}-N-(3,5-difluoro-4-methylphenyl)acetamide], for which the “Human P2X4 HEK Cells” value was 100% and the IC50 came out at 694 nM.

For `COc1c(F)cc(N(C(C)=O)c2cc(NC(=O)Cc3ccccc3Cl)ccn2)cc1F` [Example 96, N-{4-[2-(2-chlorophenyl)acetamido]pyridin-2-yl}-N-(3,5-difluoro-4-methoxyphenyl)acetamide], the “Human P2X4 HEK Cells” value amounted to 89% and the IC50 turned out to be 362 nM.

As for `COc1c(F)cc(N(C(C)=O)c2cc(NC(=O)Cc3ccc(F)cc3Cl)ccn2)cc1F` [Example 97, N-{4-[2-(2-chloro-4-fluorophenyl)acetamido]pyridin-2-yl}-N-(3,5-difluoro-4-methoxyphenyl)acetamide], the “Human P2X4 HEK Cells” value turned out to be 89% and the IC50 worked out at 461 nM.

With `COc1c(F)cc(N(C(C)=O)c2cc(NC(=O)Cc3cccc(F)c3Cl)ccn2)cc1F` [Example 98, N-{4-[2-(2-chloro-3-fluorophenyl)acetamido]pyridin-2-yl}-N-(3,5-difluoro-4-methoxyphenyl)acetamide], the “Human P2X4 HEK Cells” value amounted to 92% and the concentration for half-maximal inhibition (IC50) is 296 nM.

Consider `COc1c(F)cc(N(C(C)=O)c2cc(NC(=O)Cc3c(Cl)cccc3Cl)ccn2)cc1F` [Example 99, N-{4-[2-(2,6-dichlorophenyl)acetamido]pyridin-2-yl}-N-(3,5-difluoro-4-methoxyphenyl)acetamide], for which the “Human P2X4 HEK Cells” value was 95% and the 50% inhibitory concentration (IC50) came out at 449 nM.

As to `CC(=O)N(c1cccc(OC(F)(F)F)c1)c1cc(NC(=O)Cc2ccccc2Cl)ccn1` [Example 102, N-{4-[2-(2-chlorophenyl)acetamido]pyridin-2-yl}-N-[3-(trifluoromethoxy)phenyl]acetamide], the “Human P2X4 HEK Cells” value is on record as 99% and the IC50 was found to be 937 nM.

In the case of `COc1cc(N(C(C)=O)c2cc(NC(=O)Cc3cccc(F)c3Cl)ccn2)ccc1F` [Example 103, N-{4-[2-(2-chloro-3-fluorophenyl)acetamido]pyridin-2-yl}-N-(4-fluoro-3-methoxyphenyl)acetamide], the “Human P2X4 HEK Cells” value is 97% and the IC50 was 767 nM.

Turning to `COc1cc(N(C(C)=O)c2cc(NC(=O)Cc3c(Cl)cccc3Cl)ccn2)ccc1F` [Example 104, N-{4-[2-(2,6-dichlorophenyl)acetamido]pyridin-2-yl}-N-(4-fluoro-3-methoxyphenyl)acetamide], the “Human P2X4 HEK Cells” value is 96% and the IC50 came to 846 nM.

With `CC(=O)N(c1cc(NC(=O)Cc2cccc(C(F)(F)F)c2Cl)ccn1)c1ccccc1Cl` [Example 105, N-(2-chlorophenyl)-N-(4-{2-[2-chloro-3-(trifluoromethyl)phenyl]acetamido}pyridin-2-yl)acetamide], the “Human P2X4 HEK Cells” value turned out to be 100% and the IC50 was 770 nM.

Regarding `CC(=O)N(c1cc(NC(=O)Cc2ccccc2Cl)ccn1)c1ccccc1Cl` [Example 106, N-(2-chlorophenyl)-N-{4-[2-(2-chlorophenyl)acetamido]pyridin-2-yl}acetamide], the “Human P2X4 HEK Cells” value stood at 95% and the IC50 stood at 765 nM.

As for `CC(=O)N(c1cc(NC(=O)Cc2ccc(F)cc2Cl)ccn1)c1ccccc1Cl` [Example 107, N-{4-[2-(2-chloro-4-fluorophenyl)acetamido]pyridin-2-yl}-N-(2-chlorophenyl)acetamide], the “Human P2X4 HEK Cells” value was 98% and the IC50 came out at 550 nM.

Consider `CC(=O)N(c1cc(NC(=O)Cc2cccc(F)c2Cl)ccn1)c1ccccc1Cl` [Example 108, N-{4-[2-(2-chloro-3-fluorophenyl)acetamido]pyridin-2-yl}-N-(2-chlorophenyl)acetamide], for which the “Human P2X4 HEK Cells” value stood at 97% and the IC50 amounted to 769 nM.

Consider `CC(=O)N(c1cc(NC(=O)Cc2c(Cl)cccc2Cl)ccn1)c1ccccc1Cl` [Example 109, N-(2-chlorophenyl)-N-{4-[2-(2,6-dichlorophenyl)acetamido]pyridin-2-yl}acetamide], for which the “Human P2X4 HEK Cells” value is given as 100% and the IC50 is 643 nM.

Take `CC(=O)N(c1cc(NC(=O)Cc2cccc(C(F)(F)F)c2Cl)ccn1)c1cc(F)ccc1Cl` [Example 110, N-(2-chloro-5-fluorophenyl)-N-(4-{2-[2-chloro-3-(trifluoromethyl)phenyl]acetamido}pyridin-2-yl)acetamide]: the “Human P2X4 HEK Cells” value is given as 95% and the IC50 stood at 745 nM.

On to `CC(=O)N(c1cc(NC(=O)Cc2ccccc2Cl)ccn1)c1ccccc1F` [Example 115, N-{4-[2-(2-chlorophenyl)acetamido]pyridin-2-yl}-N-(2-fluorophenyl)acetamide], for which the “Human P2X4 HEK Cells” value is listed as 96% and the IC50 was 391 nM.

Turning to `CC(=O)N(c1cc(NC(=O)Cc2ccc(F)cc2Cl)ccn1)c1ccccc1F` [Example 116, N-{4-[2-(2-chloro-4-fluorophenyl)acetamido]pyridin-2-yl}-N-(2-fluorophenyl)acetamide], the “Human P2X4 HEK Cells” value is given as 97% and the IC50 was 520 nM.

As for `CC(=O)N(c1cc(NC(=O)Cc2cccc(F)c2Cl)ccn1)c1ccccc1F` [Example 117, N-{4-[2-(2-chloro-3-fluorophenyl)acetamido]pyridin-2-yl}-N-(2-fluorophenyl)acetamide], the “Human P2X4 HEK Cells” value was 95% and the IC50 came out at 789 nM.

In the case of `CC(=O)N(c1cc(NC(=O)Cc2c(Cl)cccc2Cl)ccn1)c1ccccc1F` [Example 118, N-{4-[2-(2,6-dichlorophenyl)acetamido]pyridin-2-yl}-N-(2-fluorophenyl)acetamide], the “Human P2X4 HEK Cells” value is 94% and the IC50 was 545 nM.
